Patent publication US4161520A, “Method of treating hypertension” (priority 1976, dated 1979)

Tests used:
DOCA-Na. rat = assay: Comparative antihypertensive activity of polyether ionophores in the DOCA-Na rat (Example 3, Table III); assay type: in vivo; settings: oral, five-day period, daily dose 1/100 of oral LD50 up to 10 mg/kg/day; for AHR (Subacute antihypertensive ratio): bromolasalocid as standard reference; for DURATION OF EFFECT: monitored until return to pre-drug levels
Protocol: Using bromolasalocid as a standard for comparison, a number of polyether ionophores were tested for antihypertensive activity. The tests were conducted utilizing single oral dosages in the DOCA-Na. rat over a five-day period with dosing discontinued thereafter. Blood pressure monitoring was carried out for the five-day period and daily after cessation of dosing until blood pressure returned to pre-drug levels. […] The daily dosage was calculated by using one-one hundredth (1/100) of the oral (per os) toxicity (LD50) up to a maximum of 10 mg/kg/day. The antihypertensive activity expressed as AHR (Subacute antihypertensive ratio) was calculated using bromolasalocid as the standard reference (Table III).

[1] = Oral (per os) toxicity (LD50); assay type: in vivo

| Molecule | ONSET TO MAX. RESPONSE (DOCA-Na. rat) [days] | AHR (Subacute antihypertensive ratio) (DOCA-Na. rat) | DURATION OF EFFECT (DOCA-Na. rat) [days] | LD50 [1] [mg/kg] |
| --- | --- | --- | --- | --- |
| COC1CCC(OC2C(C)C(O)(C(C)C(=O)O)OC(CC3CC(OC)C(C)C4(O3)OC(C)(C3CCC(C5CCC(C6OC(C)(O)C(C)C(OC)C6C)O5)O3)C(OC)C4C)C2(C)OC)OC1C (stereo not shown) [A-204] | 4 | 86.6 | 5 | 14 |
| CNc1ccc2oc(C[C@H]3O[C@@]4(CC[C@H]3C)O[C@H]([C@H](C)C(=O)c3ccc[nH]3)[C@H](C)C[C@H]4C)nc2c1C(=O)O [A-23187] | 4 | 0.93 | 10 | > 1000 |
| CO[C@@H]1C[C@@H](C[C@H]2CC[C@H](C)[C@H]([C@@H](C)C(=O)O)O2)O[C@]2(O[C@](C)([C@H]3CC[C@@](C)([C@@H]4O[C@@H]([C@H]5O[C@@](O)(CO)[C@H](C)C[C@@H]5C)C[C@@H]4C)O3)C[C@H]2C)[C@@H]1C [NIGERICIN, Nigericin] | 3 | 4.0 | 9 | 190 |
| CC/C(=C\C=C\[C@@H]1C=C[C@@H]2[C@@H](CC)CC[C@H]2[C@@H]1C(=O)c1ccc[nH]1)[C@@H]1O[C@@H]([C@@H](C)C(=O)O)CC[C@@H]1C [X-14547A] | 2 | 0.58 | 3 | 129 |
| BROMOISOLASALOCID | 2 | 0.85 | 8 | > 1000 |
| Lysocellin | 2 | 2.08 | 3 | 225 |
| Monensin | 2 | 7.2 | 9 | 250 |
